Measurements reported in patent EP0260744B1, “(1H-imidazol-1-ylmethyl) substituted benzimidazole derivatives” (JANSSEN PHARMACEUTICA N.V., priority 1986, dated 1988).

System: Plasma testosterone concentrations
Experiment: Testosterone in vivo test
Conditions: Rattus norvegicus, 2 h; male rats, oral; LHRH-analogue i.m. after one hour; plasma testosterone two hours after administration; 50% inhibition relative to placebo
Experimental: Male rats were administered orally a test compound as a solution or as a suspension in aqueous medium. One hour following drug or placebo administration, a luteinizing hormone releasing hormone- analogue was injected intramuscularly and an anaesthetic was administered intraperitonally. Two hours after the oral administration of the test compound the rats were decapitated, and the blood was collected on heparine. Plasma testosterone concentrations were measured by standard radio-immunological procedures. A 50% inhibition relative to the placebo values was considered as the criterion of testosterone inhibitory activity. ED50-values were determined by probit analysis.

Row | Structure (SMILES) | ED50 [mg/kg]
1 | Cn1cnc2cc(C(c3ccccc3)n3ccnc3)ccc21 (centres unmarked) [Compound 28] | 2.5
2 | Cn1c(-c2ccccc2)nc2ccc(C(c3ccccc3)n3ccnc3)cc21 (centres unmarked) [Compound 30] | 2.5
3 | c1csc(C(c2ccc3[nH]c(-c4cscn4)nc3c2)n2ccnc2)c1 (centres unmarked) [Compound 34] | 2.5
4 | COc1ccc(-c2nc3cc(C(c4ccccc4)n4ccnc4)ccc3[nH]2)cc1 (centres unmarked) [Compound 49] | < 2.5
5 | c1cn(Cc2ccc3[nH]c(-c4cscn4)nc3c2)cn1 [Compound 51] | 2.5
6 | Nc1ncccc1-c1nc2cc(Cn3ccnc3)ccc2[nH]1 [Compound 53] | 2.5
7 | CCC(c1ccc2[nH]c(-c3ccccc3)nc2c1)n1ccnc1 (centres unmarked) [Compound 54] | 2.5
8 | c1ccc2c(Cc3nc4cc(Cn5ccnc5)ccc4[nH]3)c[nH]c2c1 [Compound 71] | 2.5
9 | CC(c1ccc2[nH]c(C(F)F)nc2c1)n1ccnc1 (centres unmarked) [Compound 78] | < 2.5
10 | CCC(c1ccc2[nH]c(C(F)(F)F)nc2c1)n1ccnc1 (centres unmarked) [Compound 83, 5-[1-(1 H-imidazol-1-yl)propyl]-2-(trifluoromethyl)-1 H-benzimidazole] | < 2.5
11 | CC(C)C(c1ccc2[nH]c(C(F)(F)F)nc2c1)n1ccnc1 (centres unmarked) [Compound 84, 5-[1-(1 H-imidazol-1-yl)-2-methylpropyl]-2-(trifluoromethyl)-1 H-benzimidazole ethanedioate(1:1).hemihydrate] | < 2.5
12 | Fc1ccccc1-c1nc2ccc(C(c3ccccc3)n3ccnc3)cc2[nH]1 (centres unmarked) [Compound 92, 2-(2-fluorophenyl)-5-[(1 H-imidazol-1-yl)phenylmethyl]-1H-benzimidazole ethanedioate(2:3)] | < 2.5
13 | Clc1cccc(C(c2ccc3[nH]cnc3c2)n2ccnc2)c1 (centres unmarked) [Compound 93, 5-[(3-chlorophenyl)-(1 H-imidazol-1-yl)methyl]-1 H-benzimidazole] | 2.5
14 | c1ccc(Cn2cnc3ccc(Cn4ccnc4)cc32)cc1 [Compound 102] | < 2.5
15 | c1ccc(C(c2ccc3[nH]cnc3c2)n2ccnc2)cc1 (centres unmarked) [Compound 111, 5-[(1 H-imidazol-1-yl)phenylmethyl]-1 H-benzimidazole] | < 10
16 | c1cncc(C(c2ccc3[nH]cnc3c2)n2ccnc2)c1 (centres unmarked) [Compound 112, 5-[(1 H-imidazol-1-yl)(3-pyridinyl)methyl]-1 H-benzimidazole] | 2.5
17 | c1csc(C(c2ccc3[nH]cnc3c2)n2ccnc2)c1 (centres unmarked) [Compound 113, 5-[(1H-imidazol-1-yl)(2-thienyl)methyl]-1H-benzimidazole] | < 10
18 | COc1nc2cc(C(c3ccccc3)n3ccnc3)ccc2[nH]1 (centres unmarked) [Compound 115, 5-[(1 H-imidazol-1-yl)phenylmethyl]-2-methoxy-1 H-benzimidazole] | 2.5
19 | CCC(c1ccc2[nH]cnc2c1)n1ccnc1.Cl.Cl (centres unmarked) [Compound 119, 5-[1-(1 H-imidazol-1-yl)propyl]-1 H-benzimidazole dihydrochloride] | 2.5

Row | Structure (SMILES) | ED50 [mg/kg]
20 | Cc1nc2cc(C(c3cccc(Cl)c3)n3ccnc3)ccc2[nH]1 (centres unmarked) [Compound 122, 5-[(3-chlorophenyl)(1 H-imidazol-1-yl)methyl]-2-methyl-1 H-benzimidazole] | 2.5
21 | Cc1nc2cc(C(c3cccs3)n3ccnc3)ccc2[nH]1 (centres unmarked) [Compound 125] | 2.5
22 | Cc1nc2cc(C(c3ccc(Cl)cc3Cl)n3ccnc3)ccc2[nH]1 (centres unmarked) [Compound 127] | 10
23 | CCCCCc1nc2cc(Cn3ccnc3)ccc2[nH]1 [Compound 133] | < 2.5
24 | CCCCCc1nc2cc(C(c3ccccc3)n3ccnc3)ccc2[nH]1 (centres unmarked) [Compound 136] | < 2.5
25 | Fc1cccc(-c2nc3cc(Cn4ccnc4)ccc3[nH]2)c1 [Compound 141] | 2.5
26 | Fc1ccc(-c2nc3cc(Cn4ccnc4)ccc3[nH]2)cc1 [Compound 142] | 2.5
27 | Cc1nc2cc(C(C(C)C)n3ccnc3)ccc2n1C (centres unmarked) [Compound 160] | 2.5
28 | Cc1ccc(-c2nc3cc(C(c4ccccc4)n4ccnc4)ccc3[nH]2)cc1 (centres unmarked) [Compound 173] | < 2.5
29 | Fc1ccc(-c2nc3cc(C(c4ccccc4)n4ccnc4)ccc3[nH]2)cc1 (centres unmarked) [Compound 174] | < 2.5
30 | Cc1nc2cc(C(C(C)C)n3ccnc3)ccc2[nH]1 (centres unmarked) [Compound 182] | 2.5
31 | CC(c1ccc2[nH]c(-c3cccnc3)nc2c1)n1ccnc1 (centres unmarked) [Compound 189, 5-[1-(1H-imidazol-1-yl)ethyl]-2-(3-pyridinyl)-1H-benzimidazole] | 2.5
32 | c1ccc(C(c2ccc3[nH]c(-c4cccnc4)nc3c2)n2ccnc2)cc1 (centres unmarked) [Compound 190, 5-[(1 H-imidazol-1-yl)phenylmethyl]-2-(3-pyridinyl)-1H-benzimidazole] | 10
33 | Cc1nc2cc(C(C)n3ccnc3)ccc2[nH]1.Cl.Cl (centres unmarked) [Compound 206, 5-[1-(1 H-imidazol-1-yl)ethyl]-2-methyl-1 H-benzimidazole dihydrochloride] | < 2.5
34 | Cn1c(O)nc2cc(Cn3ccnc3)ccc21 [Compound 222, 5-(1 H-imidazol-1-ylmethyl)-1-methyl-1 H-benzimidazol-2-ol] | < 2.5
35 | COn1c(-c2ccccc2)nc2ccc(Cn3ccnc3)cc21 [Compound 227, 6-(1 H-imidazol-1-ylmethyl)-1-methoxy-2-phenyl-1 H-benzimidazole] | 2.5
36 | COn1c(-c2cccnc2)nc2ccc(Cn3ccnc3)cc21 [Compound 229] | 2.5
37 | COn1c(C)nc2ccc(C(c3ccccc3)n3ccnc3)cc21 (centres unmarked) [Compound 231] | 2.5
38 | COn1c(-c2ccc(F)cc2)nc2ccc(C(C)n3ccnc3)cc21 (centres unmarked) [Compound 235] | 2.5
